As usually defined, the IC50 is the concentration at which inhibition is half-maximal. A higher IC50 goes with a need for much substance.

One assay addresses Aldo-keto reductase family 1 member B1 (Homo sapiens, UniProt P15121). Nature of the assay: Inhibition of Homo sapiens (human) aldose reductase.
For the molecule `CC1=C(CC(=O)O)c2cc(F)ccc2/C1=C\c1ccc([S+](C)[O-])cc1` (stereo not given) [SULINDAC], the IC50 came out at 374 nM.

In turn, `Cc1ccc(C(=O)c2ccc(CC(=O)O)n2C)cc1` [TOLMETIN] yielded a 50% inhibitory concentration (IC50) of 2390 nM.

In another assay the target is Aldo-keto reductase family 1 member B1 (Rattus norvegicus, UniProt P07943). Nature of the assay: Inhibition of Rattus norvegicus (rat) lens aldose reductase.
In the case of `O=C(/C=C/c1ccc(O)cc1)c1ccccc1O`, the IC50 is 4250 nM. The same measure, in the same setting: with `O=C(/C=C/c1ccccc1O)c1ccc(O)cc1O` the figure was 380 nM; with `COc1ccc(/C=C/C(=O)c2ccc(O)cc2O)cc1`, 930 nM; with `O=C(/C=C/c1ccc(Br)cc1)c1ccc(O)cc1O`, 1120 nM. On the same count and under the same terms, the figure for `O=C(/C=C/c1ccc(O)cc1)c1cc(Cl)ccc1O` is 1010 nM; for `O=C(/C=C/c1ccccc1)c1cc(Cl)ccc1O` it is 11500 nM. Molecule `COc1ccc(/C=C/C(=O)c2cc(Cl)ccc2O)cc1` displayed an IC50 of 14800 nM. Still for that read-out and setting: the figure for `Cc1ccc(/C=C/C(=O)c2ccc(O)cc2O)cc1` is 810 nM; for `O=C(/C=C/c1cc(O)ccc1O)c1ccc(O)cc1O` it is 580 nM; for `O=C(/C=C/c1ccc(Cl)cc1)c1cc(Cl)ccc1O` it is 13700 nM. For the molecule `CN(C)c1ccc(/C=C/C(=O)c2ccc(O)cc2O)cc1`, the IC50 amounted to 1150 nM. On the same count and under the same terms, the figure for `O=C(/C=C/c1ccc(Cl)c(Cl)c1)c1ccc(O)cc1O` is 1210 nM; for `COc1ccc(/C=C/C(=O)c2ccc(O)cc2O)cc1F` it is 910 nM; for `Cc1ccc(/C=C/C(=O)c2ccc(O)cc2O)c(C)c1` it is 400 nM. Still for that read-out and setting: with `O=C(/C=C/c1ccc(O)c(O)c1O)c1ccc(O)cc1O` the figure was 750 nM.

With `O=C(/C=C/c1ccccc1O)c1cc(Cl)ccc1O`, the IC50 is 1250 nM. As to `O=C(/C=C/c1cccc(O)c1)c1cc(Cl)ccc1O`, inhibition was half-maximal at 10500 nM (IC50).

For `Cc1cccc(/C=C/C(=O)c2cc(Cl)ccc2O)c1`, half-maximal inhibition (IC50) was put at 10200 nM. Same read-out and setting: with `Cc1ccc(/C=C/C(=O)c2cc(Cl)ccc2O)cc1` the figure was 9800 nM; with `Cc1ccc(/C=C/C(=O)c2cc(Cl)ccc2O)c(C)c1`, 7800 nM.

Molecule `O=C(/C=C/c1ccc(O)cc1O)c1cc(Cl)ccc1O` returned an IC50 of 850 nM. Same read-out and setting: with `COc1ccc(/C=C/C(=O)c2cc(Cl)ccc2O)cc1F` the figure was 10900 nM.

In turn, `COc1ccc(/C=C/C(=O)c2cc(Cl)ccc2O)cc1OC` displayed an IC50 of 11800 nM.

For the molecule `O=C(/C=C/c1ccc(O)c(O)c1)c1cc(Cl)ccc1O`, it took 550 nM to reach half-maximal inhibition (IC50). Turning to `COc1ccc(/C=C/C(=O)c2cc(Cl)ccc2O)c(OC)c1OC`, 8200 nM corresponded to half-maximal inhibition (IC50). Molecule `O=C(/C=C/c1ccc(O)c(O)c1O)c1cc(Cl)ccc1O` had an IC50 of 2230 nM. The molecule `O=C(/C=C/c1ccc(O)cc1)c1cc(O)ccc1O` had an IC50 of 5390 nM. Still for that read-out and setting: with `COc1ccc(O)c(C(=O)/C=C/c2ccc(O)cc2)c1` the figure was 3180 nM; with `COc1cccc(O)c1C(=O)/C=C/c1ccc(O)cc1`, 3270 nM; with `Cc1ccc(O)c(C(=O)/C=C/c2ccc(O)cc2)c1`, 4380 nM.

In turn, `O=C(/C=C/c1ccc(O)cc1)c1cc(Br)ccc1O` gave an IC50 of 2150 nM.

Molecule `O=C(/C=C/c1ccc([N+](=O)[O-])cc1)c1ccc(O)cc1O` returned an IC50 of 3210 nM.

Consider `COc1ccc(C(=O)/C=C/c2ccc(O)cc2)c(O)c1`, for which the concentration for half-maximal inhibition (IC50) worked out at 5240 nM. `O=C(/C=C/c1ccc(O)cc1O)c1ccc(O)cc1O`: inhibition was half-maximal at 160 nM (IC50). Still for that read-out and setting: with `COc1ccc(/C=C/C(=O)c2ccc(O)cc2O)cc1OC` the figure was 1050 nM. On to `O=C(/C=C/c1ccccc1)c1ccc(O)cc1O` [2',4'-DIHYDROXYCHALCONE], for which the IC50 is 1010 nM. Same read-out and setting: with `O=C(/C=C/c1ccc(O)c(O)c1)c1ccc(O)cc1O` [BUTEIN] the figure was 450 nM; with `O=C(/C=C/c1ccc(O)cc1)c1ccc(O)cc1O` [ISOLIQUIRITIGENIN], 400 nM.

These data come from ChEMBL document CHEMBL3046187, “Challenges in docking 2-hydroxy and 2,4-dihydroxychalcones into the binding site of ALR2” (Med Chem Res, 2013).
